Experimental data published in ChEMBL document CHEMBL1133175, “QSAR analysis of Delta(8)-THC analogues: relationship of side-chain conformation to cannabinoid receptor affinity and pharmacological potency” (J Med Chem, 2000).

Biological target: T1, Cannabinoid receptor 1 (Homo sapiens, UniProt P21554)
Experiment: Binding affinity against Cannabinoid receptor 1.

T1 sequence (P21554 whole entry): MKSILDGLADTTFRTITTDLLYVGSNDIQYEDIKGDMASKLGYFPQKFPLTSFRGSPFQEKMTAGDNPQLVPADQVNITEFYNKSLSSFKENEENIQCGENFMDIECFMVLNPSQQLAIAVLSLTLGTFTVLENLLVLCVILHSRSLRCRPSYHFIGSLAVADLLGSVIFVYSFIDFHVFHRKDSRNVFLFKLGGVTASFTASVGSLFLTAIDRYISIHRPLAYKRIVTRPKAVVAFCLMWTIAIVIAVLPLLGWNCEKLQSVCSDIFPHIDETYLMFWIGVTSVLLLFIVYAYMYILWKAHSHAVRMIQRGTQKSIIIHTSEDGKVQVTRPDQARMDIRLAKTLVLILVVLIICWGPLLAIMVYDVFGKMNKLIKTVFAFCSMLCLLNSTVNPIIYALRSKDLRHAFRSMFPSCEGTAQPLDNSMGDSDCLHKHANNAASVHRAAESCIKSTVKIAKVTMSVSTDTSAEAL

Row | Compound | Kd
1 | CC1=CCC2C(C1)c1c(O)cc(CC#CCCC#N)cc1OC2(C)C (stereo not given) | 31 nM
2 | CC1=CCC2C(C1)c1c(O)cc(CC#CCBr)cc1OC2(C)C (stereo not given) | 143 nM
3 | CC1=CCC2C(C1)c1c(O)cccc1OC2(C)C (stereo not given) | 45 nM
4 | COC(=O)C#CCc1cc(O)c2c(c1)OC(C)(C)C1CC=C(C)CC21 (stereo not given) | 731 nM
5 | COC(=O)C#CCCc1cc(O)c2c(c1)OC(C)(C)C1CC=C(C)CC21 (stereo not given) | > 10000 nM
6 | CC1=CCC2C(C1)c1c(O)cc(CC#CCCCBr)cc1OC2(C)C (stereo not given) | 1.2 nM
7 | CCCCC#CCCc1cc(O)c2c(c1)OC(C)(C)C1CC=C(C)CC21 (stereo not given) | 9 nM
8 | CCC/C=C/CCCc1cc(O)c2c(c1)OC(C)(C)C1CC=C(C)CC21 (stereo not given) | 11 nM
9 | CC1=CCC2C(C1)c1c(O)cc(C/C=C/CCCC#N)cc1OC2(C)C (stereo in doubt; 29) | 0.77 nM
10 | C#CCCCC#Cc1cc(O)c2c(c1)OC(C)(C)C1CC=C(C)CC21 (stereo not given) | 460 nM
11 | CC1=CCC2C(C1)c1c(O)cc(C=C=CCCCC(=O)O)cc1OC2(C)C (stereo not given) | 3170 nM
12 | CCCCCC#CCc1cc(OC)c2c(c1)OC(C)(C)C1CC=C(C)CC21 (stereo not given) | 189 nM
13 | CCCC#CCCCc1cc(O)c2c(c1)OC(C)(C)C1CC=C(C)CC21 (stereo not given) | 19 nM
14 | C#CCCc1cc(O)c2c(c1)OC(C)(C)C1CC=C(C)CC21 (stereo not given) | 367 nM
15 | CC1=CCC2C(C1)c1c(O)cc(C#CCCCC#N)cc1OC2(C)C (stereo not given) | 104 nM
16 | CCCCC/C=C/Cc1cc(O)c2c(c1)OC(C)(C)C1CC=C(C)CC21 (stereo not given) | 3.19 nM
17 | CCCCCCC#CCc1cc(O)c2c(c1)OC(C)(C)C1CC=C(C)CC21 (stereo not given) | 3.7 nM
18 | CC1=CCC2C(C1)c1c(O)cc(C/C=C/CCCC#N)cc1OC2(C)C (stereo in doubt; 30) | 1.25 nM
19 | CCCC/C=C/CCc1cc(O)c2c(c1)OC(C)(C)C1CC=C(C)CC21 (stereo not given) | 3.36 nM
20 | CCCC#CCc1cc(O)c2c(c1)OC(C)(C)C1CC=C(C)CC21 (stereo not given) | 11 nM
21 | CC1=CCC2C(C1)c1c(O)cc(C/C=C/CCCBr)cc1OC2(C)C (stereo not given) | 1.66 nM
22 | CCCCC/C=C/c1cc(O)c2c(c1)OC(C)(C)C1CC=C(C)CC21 (stereo not given) | 0.86 nM
23 | CC1=CCC2C(C1)c1c(O)cc(CC#CCCC[N+](=O)[O-])cc1OC2(C)C (stereo not given) | 5.34 nM

Biological target: T1, Cannabinoid receptor 1
Experiment: Tested for binding affinity against Cannabinoid receptor 1 (CB1)

Row | Compound | Kd
24 | C#CCCCC#CCc1cc(O)c2c(c1)OC(C)(C)C1CC=C(C)CC21 (stereo not given) | 4.7 nM
25 | CCCCCC#CCc1cc(O)c2c(c1)OC(C)(C)C1CC=C(C)CC21 (stereo not given) | 4.9 nM

Biological target: T1, Cannabinoid receptor 1
Experiment: Tested for binding affinity against Cannabinoid receptor 1 (CB1).

Row | Compound | Kd
26 | CC1=CCC2C(C1)c1c(O)cc(CC#CC(C)Br)cc1OC2(C)C (stereo not given) | 25 nM
27 | CC1=CCC2C(C1)c1c(O)cc(C/C=C/CCCF)cc1OC2(C)C (stereo not given) | 20.9 nM
28 | CC1=CCC2C(C1)c1c(O)cc(C/C=C/CCCO)cc1OC2(C)C (stereo not given) | 53.7 nM
29 | COCCC/C=C/Cc1cc(O)c2c(c1)OC(C)(C)C1CC=C(C)CC21 (stereo not given) | 11.5 nM
30 | CC1=CCC2C(C1)c1c(O)cc(CC#CCCO)cc1OC2(C)C (stereo not given) | 448 nM
31 | CC1=CCC2C(C1)c1c(O)cc(C/C=C/CCCC[N+](=O)[O-])cc1OC2(C)C (stereo not given) | 3.56 nM
32 | CCCCCC#Cc1cc(O)c2c(c1)OC(C)(C)C1CC=C(C)CC21 (stereo not given) | 36 nM
33 | CCCCCCC(C)(C)c1cc(O)c2c(c1)OC(C)(C)C1CC=C(C)CC21 (stereo not given) | 0.77 nM
34 | CC(=O)NCCC/C=C/Cc1cc(O)c2c(c1)OC(C)(C)C1CC=C(C)CC21 (stereo not given) | 16.7 nM
35 | CC(=O)NCCC#CCc1cc(O)c2c(c1)OC(C)(C)C1CC=C(C)CC21 (stereo not given) | 307 nM
